In the experiment the test system is BDF1 mice, P815 leukemia ip, survival T/C. Briefly: NCI In Vivo Anticancer Drug Screen. Data for tumor model P815 Mast Cell Leukemia (Ascitic) (intraperitoneal) in B6D2F1 (BDF1) mice. As to conditions: higher = longer survival. The method, then: The antitumor activity of compounds was measured in mice bearing transplantable tumors. Survival or tumor size were measured and the results are expressed as the measurement made in the treated group (T) divided by the measurement made in the vehicle treated control group (C). The tumor model used in this assay is P815 Mast Cell Leukemia (Ascitic) (intraperitoneal) in B6D2F1 (BDF1) mice

The mark [1] stands for this setting: endpoint: survival time, mean or median, dose: 40.0 mg/kg/injection, schedule: Q01DX010 (ip), vehicle: saline.
Setting [2] is: endpoint: survival time, mean or median, dose: 25.0 mg/kg/injection, schedule: Q01DX010 (ip), vehicle: saline.
Setting [3] is: endpoint: survival time, mean or median, dose: 50.0 mg/kg/injection, schedule: Q01DX010 (ip), vehicle: saline.
The mark [4] stands for this setting: endpoint: survival time, mean or median, dose: 62.5 mg/kg/injection, schedule: Q01DX010 (ip), vehicle: saline.
The mark [5] stands for this setting: endpoint: survival time, mean or median, dose: 125.0 mg/kg/injection, schedule: Q01DX010 (ip), vehicle: saline.
Where [6] appears, read: endpoint: survival time, mean or median, dose: 250.0 mg/kg/injection, schedule: Q01DX010 (ip), vehicle: saline.
Where [7] appears, read: endpoint: survival time, mean or median, dose: 500.0 mg/kg/injection, schedule: Q01DX010 (ip), vehicle: saline.
The mark [8] stands for this setting: endpoint: survival time, mean or median, dose: 125.0 mg/kg/injection, schedule: Q01DX015 (ip), vehicle: other.
[9] abbreviates: endpoint: survival time, mean or median, dose: 10.0 mg/kg/injection, schedule: Q01DX010 (ip), vehicle: saline.

The structures appear in SMILES notation. “And” between values parts separate entries of the source, which are not always exact repeats. Identical values can stand only once. Toxic doses and inconclusive results are not listed.

This is an account of results in PubChem BioAssay AID318 (DTP/NCI, 2004).

`O=C(Nc1cccc(NC(=O)Nc2cccc(C3=NCCN3)c2)c1)Nc1cccc(C2=NCCN2)c1`: the T/C is, setting by setting: (endpoint: survival time, mean or median, dose: 27.0 mg/kg/injection, schedule: Q01DX010 (ip), vehicle: saline) 121 % of control; under setting [1], 117 % of control; (endpoint: survival time, mean or median, dose: 66.0 mg/kg/injection, schedule: Q01DX010 (ip), vehicle: saline) 113 % of control; (endpoint: survival time, mean or median, dose: 90.0 mg/kg/injection, schedule: Q01DX010 (ip), vehicle: saline) 86 % of control.
As to `O=C(Nc1ccc(C2=NCCN2)cc1)c1ccc(C(=O)Nc2ccc(C3=NCCN3)cc2)c(NC(=O)c2ccc(C(=O)Nc3cc(C(=O)Nc4ccc(C5=NCCN5)cc4)ccc3C(=O)Nc3ccc(C4=NCCN4)cc3)cc2)c1`, the T/C by setting is: under setting [2], 95 % of control; under setting [3], 108 % of control; (endpoint: survival time, mean or median, dose: 100.0 mg/kg/injection, schedule: Q01DX010 (ip), vehicle: saline) 95 % of control; (endpoint: survival time, mean or median, dose: 200.0 mg/kg/injection, schedule: Q01DX010 (ip), vehicle: saline) 104 % of control.
For the compound `OCC1OC(n2cnc3c(Cl)ncnc32)C(O)C1O` (centres undefined), the T/C was 104 % of control and 108 % of control under setting [4]; 100 % of control and 104 % of control under setting [5]; 91 % of control and 100 % of control under setting [6]; 95 % of control under setting [7].
With `CS(=O)(=O)OCCCCOS(C)(=O)=O`, the T/C (endpoint: survival time, mean or median, dose: 6.25 mg/kg/injection, schedule: Q01DX010 (ip), vehicle: saline) is 104 % of control and 118 % of control; the T/C (endpoint: survival time, mean or median, dose: 12.5 mg/kg/injection, schedule: Q01DX010 (ip), vehicle: saline) was 86 % of control; the T/C under setting [2] is 86 % of control and 95 % of control; the T/C under setting [3] was 86 % of control and 95 % of control.
Take `NC(=O)c1[nH]nc(C2OC(CO)C(O)C2O)c1O` (centres undefined): the T/C (endpoint: median survival time, dose: 1.56 mg/kg/injection, schedule: Q04DX003 (ip), vehicle: saline) is 102 % of control; the T/C (endpoint: median survival time, dose: 2.59 mg/kg/injection, schedule: Q04DX003 (ip), vehicle: saline) is 104 % of control; the T/C (endpoint: median survival time, dose: 4.32 mg/kg/injection, schedule: Q04DX003 (ip), vehicle: saline) was 103 % of control; the T/C (endpoint: median survival time, dose: 7.2 mg/kg/injection, schedule: Q04DX003 (ip), vehicle: saline) was 121 % of control; the T/C (endpoint: median survival time, dose: 12.0 mg/kg/injection, schedule: Q04DX003 (ip), vehicle: saline) was 114 % of control; the T/C (endpoint: median survival time, dose: 20.0 mg/kg/injection, schedule: Q04DX003 (ip), vehicle: saline) is 104 % of control.
Take `CCN(CC)CCNc1ccc(C)c2sc3ccccc3c(=O)c12`: the T/C under setting [2] was 107 % of control and 113 % of control; the T/C under setting [3] was 118 % of control and 123 % of control.
On to `CC(C)CNS(=O)(=O)c1ncnc2nc[nH]c12`, for which, under “endpoint: survival time, mean or median, dose: 37.5 mg/kg/injection, schedule: Q01DX015 (ip), vehicle: carboxymethylcellulose (CMC)”, the T/C was 97 % of control.
`CC(=O)N(C)C`: the T/C was 91 % of control and 100 % of control under setting [4]; 100 % of control and 108 % of control under setting [5]; 91 % of control under setting [6]; 95 % of control and 104 % of control under setting [7].
As for `O=C(O)CC(NC(=O)CP(=O)(O)O)C(=O)O` (centres undefined), the T/C reads like this: (endpoint: median survival time, dose: 62.2 mg/kg/injection, schedule: Q04DX003 (ip), vehicle: saline) 99 % of control; (endpoint: median survival time, dose: 104.0 mg/kg/injection, schedule: Q04DX003 (ip), vehicle: saline) 99 % of control; (endpoint: median survival time, dose: 173.0 mg/kg/injection, schedule: Q04DX003 (ip), vehicle: saline) 97 % of control; (endpoint: median survival time, dose: 288.0 mg/kg/injection, schedule: Q04DX003 (ip), vehicle: saline) 107 % of control; (endpoint: median survival time, dose: 480.0 mg/kg/injection, schedule: Q04DX003 (ip), vehicle: saline) 92 % of control.
`CN(C)c1ccc(/C=C\c2ccnc3ccccc23)cc1`: the T/C is 90 % of control (endpoint: survival time, mean or median, dose: 1.5 mg/kg/injection, schedule: Q01DX010 (ip), vehicle: saline); 90 % of control (endpoint: survival time, mean or median, dose: 3.0 mg/kg/injection, schedule: Q01DX010 (ip), vehicle: saline); 90 % of control (endpoint: survival time, mean or median, dose: 6.0 mg/kg/injection, schedule: Q01DX010 (ip), vehicle: saline); 90 % of control (endpoint: survival time, mean or median, dose: 12.0 mg/kg/injection, schedule: Q01DX010 (ip), vehicle: saline).
As for `Oc1ccccc1C(Nc1nc2ccccc2s1)c1ccc2cccnc2c1O` (centres undefined), the T/C (endpoint: survival time, mean or median, dose: 62.5 mg/kg/injection, schedule: Q01DX015 (ip), vehicle: other) is 90 % of control; the T/C under setting [8] is 120 % of control; the T/C (endpoint: survival time, mean or median, dose: 250.0 mg/kg/injection, schedule: Q01DX015 (ip), vehicle: other) is 98 % of control.
As to `CN(C)c1ccc(Nc2c3ccccc3nc3ccccc23)cc1`, the T/C runs as follows: (endpoint: survival time, mean or median, dose: 36.0 mg/kg/injection, schedule: Q01DX010 (ip), vehicle: saline) 105 % of control and 122 % of control; (endpoint: survival time, mean or median, dose: 54.0 mg/kg/injection, schedule: Q01DX010 (ip), vehicle: saline) 120 % of control and 122 % of control; (endpoint: survival time, mean or median, dose: 80.0 mg/kg/injection, schedule: Q01DX010 (ip), vehicle: saline) 166 % of control; (endpoint: survival time, mean or median, dose: 120.0 mg/kg/injection, schedule: Q01DX010 (ip), vehicle: saline) 111 % of control.
On to `CCCCn1cnc2c(=S)nc[nH]c21`, for which the T/C (endpoint: survival time, mean or median, dose: 16.0 mg/kg/injection, schedule: Q01DX010 (ip), vehicle: saline) was 105 % of control; the T/C (endpoint: survival time, mean or median, dose: 32.0 mg/kg/injection, schedule: Q01DX010 (ip), vehicle: saline) was 100 % of control; the T/C (endpoint: survival time, mean or median, dose: 64.0 mg/kg/injection, schedule: Q01DX010 (ip), vehicle: saline) is 111 % of control; the T/C (endpoint: survival time, mean or median, dose: 128.0 mg/kg/injection, schedule: Q01DX010 (ip), vehicle: saline) is 105 % of control.
As for `C(CC1CO1)C1CO1` (centres undefined), the T/C (endpoint: survival time, mean or median, dose: 40.0 mg/kg/injection, schedule: Q01DX015 (ip), vehicle: saline) was 150 % of control and the T/C (endpoint: survival time, mean or median, dose: 60.0 mg/kg/injection, schedule: Q01DX015 (ip), vehicle: saline) is 172 % of control.
For `Nc1nc(N)c2nc(CNc3ccc(C(=O)NC(CCC(=O)O)C(=O)O)cc3)cnc2n1` (centres undefined), the T/C (endpoint: survival time, mean or median, dose: 0.03 mg/kg/injection, schedule: Q01DX010 (ip), vehicle: other) is 102 % of control and 105 % of control; the T/C (endpoint: survival time, mean or median, dose: 0.05 mg/kg/injection, schedule: Q01DX010 (ip), vehicle: other) was 100 % of control and 102 % of control; the T/C (endpoint: survival time, mean or median, dose: 0.1 mg/kg/injection, schedule: Q01DX010 (ip), vehicle: other) is 100 % of control and 108 % of control; the T/C (endpoint: survival time, mean or median, dose: 0.2 mg/kg/injection, schedule: Q01DX010 (ip), vehicle: other) was 105 % of control and 108 % of control.
In the case of `COc1ccc(C[n+]2cc([O-])on2)cc1`, the T/C is 111 % of control (endpoint: survival time, mean or median, dose: 12.5 mg/kg/injection, schedule: Q01DX015 (ip), vehicle: carboxymethylcellulose (CMC)); 114 % of control (endpoint: survival time, mean or median, dose: 25.0 mg/kg/injection, schedule: Q01DX015 (ip), vehicle: carboxymethylcellulose (CMC)); 107 % of control (endpoint: survival time, mean or median, dose: 100.0 mg/kg/injection, schedule: Q01DX015 (ip), vehicle: carboxymethylcellulose (CMC)).
As to `O=c1[nH]c(=O)n(C2CC(O)C(CO)O2)cc1F` (centres undefined), the T/C (endpoint: survival time, mean or median, dose: 5.0 mg/kg/injection, schedule: Q01DX010 (ip), vehicle: saline) was 100 % of control; the T/C under setting [9] was 100 % of control and 105 % of control; the T/C (endpoint: survival time, mean or median, dose: 20.0 mg/kg/injection, schedule: Q01DX010 (ip), vehicle: saline) was 111 % of control and 116 % of control; the T/C under setting [1] is 111 % of control.
Consider `C=CCSc1nc(N)nc2nc[nH]c12`, for which the T/C is, setting by setting: (endpoint: survival time, mean or median, dose: 15.0 mg/kg/injection, schedule: Q01DX015 (ip), vehicle: other) 113 % of control; (endpoint: survival time, mean or median, dose: 16.0 mg/kg/injection, schedule: Q01DX015 (ip), vehicle: other) 109 % of control; (endpoint: survival time, mean or median, dose: 31.0 mg/kg/injection, schedule: Q01DX015 (ip), vehicle: other) 96 % of control and 107 % of control; (endpoint: survival time, mean or median, dose: 62.0 mg/kg/injection, schedule: Q01DX015 (ip), vehicle: other) 106 % of control and 112 % of control; under setting [8], 89 % of control and 91 % of control.
As to `CC1CN=C(c2ccc(NC(=O)c3ccc(C(=O)Nc4ccc(C5=NCC(C)N5)cc4)cc3)cc2)N1` (centres undefined), the T/C is, setting by setting: under setting [9], 165 % of control; (endpoint: survival time, mean or median, dose: 15.0 mg/kg/injection, schedule: Q01DX010 (ip), vehicle: saline) 156 % of control; (endpoint: survival time, mean or median, dose: 22.0 mg/kg/injection, schedule: Q01DX010 (ip), vehicle: saline) 182 % of control; (endpoint: survival time, mean or median, dose: 33.0 mg/kg/injection, schedule: Q01DX010 (ip), vehicle: saline) 186 % of control.
Regarding `CCOC(N)=O`, the T/C was 100 % of control under setting [5]; 100 % of control and 118 % of control under setting [6]; 100 % of control and 104 % of control under setting [7].
